# Paper PMC5053523, “In Vitro Antibacterial Activity of Rhodanine Derivatives against Pathogenic Clinical Isolates” (PLoS ONE, 2016)
# Like-named read-outs stand apart in the source and are kept apart here.
# What was measured:
# Klebsiella pneumoniae = assay: MIC with/without sub-MIC colistin, Klebsiella pneumoniae; type: cell-based
# Outline: (§1)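 Sub-MIC colistin or PMBN added to broth MIC tests of rhodanines and reference antibiotics against Gram-negative strains; AcrAB efflux-deficient E. coli SM1411ΔacrAB also tested.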
# Salmonella Typhimurium [1] = assay: MIC with/without PMBN, Salmonella Typhimurium; type: cell-based
# Outline: as §1
# Pseudomonas aeruginosa [2] = assay: MIC with/without PMBN, Pseudomonas aeruginosa; type: cell-based
# Outline: as §1
# Bacillus Strains = assay: Broth microdilution MIC50/MIC90 and MIC range, Bacillus strains panel; type: cell-based, Bacillus spp.; conditions: 10 Bacillus strains
# From the text: The broth microdilution technique was used, followed by subculturing on agar plates that were rhodanine—free. […] The MICs reported represent the lowest concentration of each compound necessary to inhibit bacterial growth and the MBCs represent the lowest concentration required to reduce the initial bacterial inoculum by ≥ 99.9%.
# B. cereus = assay: Broth microdilution MIC/MBC, B. cereus; type: cell-based; conditions: Bacillus cereus; for MBC: read-out: MBC; for MIC: read-out: MIC
# From the text: The broth microdilution technique was used, followed by subculturing on agar plates that were rhodanine—free.
# Escherichia coli O157:H7 [3] = assay: MIC with/without sub-MIC colistin, Escherichia coli O157:H7; type: cell-based
# Outline: as §1
# MRSA USA300 = assay: MIC against MRSA USA300 with and without 4% human serum albumin; type: cell-based, Staphylococcus aureus; conditions: Staphylococcus aureus, read-out: MIC against MRSA USA300
# Outline: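 MIC measured in tryptic soy broth spiked with 4% HSA and without it, using CLSI broth microdilution on MRSA USA300. Value reported is the lowest concentration preventing bacterial growth.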
# Pseudomonas aeruginosa [4] = assay: MIC with/without sub-MIC colistin, Pseudomonas aeruginosa; type: cell-based
# Outline: as §1
# [5] = system: vancomycin resistant enterococci (VRE) E. faecalis; assay: Broth microdilution MIC/MBC, VRE E. faecalis; type: cell-based; conditions: for MIC: read-out: MIC
# P. aeruginosa = assay: Broth microdilution MIC, P. aeruginosa; type: cell-based; conditions: Pseudomonas aeruginosa
# Acinetobacter baumannii [6] = assay: Broth microdilution MIC, Acinetobacter baumannii; type: cell-based
# K. pneumoniae = assay: Broth microdilution MIC, K. pneumoniae; type: cell-based
# Acinetobacter baumannii [7] = assay: MIC with/without PMBN, Acinetobacter baumannii; type: cell-based
# Outline: as §1
# Escherichia coli O157:H7 [8] = assay: MIC with/without PMBN, Escherichia coli O157:H7; type: cell-based
# Outline: as §1
# [9] = system: vancomycin resistant enterococci (VRE) E. faecium; assay: Broth microdilution MIC/MBC, VRE E. faecium; type: cell-based; conditions: for MIC: read-out: MIC
# Escherichia coli Δ acrAB = assay: MIC against E. coli 1411 and AcrAB efflux pump deficient E. coli SM1411Δ acrAB; type: cell-based
# Outline: as §1
# Salmonella Typhimurium [10] = assay: MIC with/without sub-MIC colistin, Salmonella Typhimurium; type: cell-based
# Outline: as §1
# [11] = Klebsiella pneumoniae ATCC BAA 2146, colistin (+) […]
# [12] = Salmonella Typhimurium ATCC 700720, PMBN (+) 4 μg/mL, read-out: MIC
# [13] = Salmonella enterica, ATCC 700720 / TYPHIMURIUM
# [14] = Pseudomonas aeruginosa ATCC 9721, PMBN (+) 4 μg/mL, read-out: MIC
# [15] = Pseudomonas aeruginosa, ATCC9721
# [16] = NRS201, B. cereus NRS 201 NR-2488
# [17] = Escherichia coli O157:H7 ATCC 35150, colistin (+) […], read-out: MIC
# [18] = Escherichia coli O157:H7 ATCC 700728, colistin (+) […], read-out: MIC
# [19] = Pseudomonas aeruginosa ATCC 921, colistin (+) […], read-out: MIC
# [20] = Pseudomonas aeruginosa, ATCC921
# [21] = E. faecalis NR31972 Strain SF 28073
# [22] = Acinetobacter baumannii ATCC BAA747, PMBN (+) 4 μg/mL, read-out: MIC
# [23] = Acinetobacter baumannii ATCC BAA19606, PMBN (+) 4 μg/mL, read-out: MIC
# [24] = Acinetobacter baumannii, ATCCBAA747
# [25] = Acinetobacter baumannii, ATCCBAA19606
# [26] = Escherichia coli O157:H7 ATCC 35150, PMBN (+) 4 μg/mL, read-out: MIC
# [27] = Escherichia coli O157:H7 ATCC 700728, PMBN (+) 4 μg/mL, read-out: MIC
# [28] = E. faecium HM 968 Strain ERV102
# [29] = E. faecium NR31914 Strain E0120
# [30] = E. faecium Patient #1–1 NR-31903
# [31] = E.coli 1411 SM (Δ acrAB, AcrAB efflux pump deficient)
# [32] = Salmonella Typhimurium ATCC 700720, colistin (+) […], read-out: MIC
smiles,measurement,setting,value
O=C(O)[C@H](Cc1ccccc1)N1C(=O)/C(=C/c2cccc(OC/C=C/c3ccc(Cl)c(Cl)c3)c2)SC1=S [Rh 6],MIC,Klebsiella pneumoniae; [11],>64 µM
same,MIC,"Klebsiella pneumoniae; Klebsiella pneumoniae, BAA2146",> 128 µM
same,MIC,Salmonella Typhimurium [1]; [12],>128 µM
same,MIC,Salmonella Typhimurium [1]; [13],> 128 µM
same,MIC,Pseudomonas aeruginosa [2]; [14],>64 µM
same,MIC,Pseudomonas aeruginosa [2]; [15],> 128 µM
same,MIC50,Bacillus Strains,4 µM
same,MIC90,Bacillus Strains,4 µM
same,MBC,B. cereus; B. cereus BAG1O-2 NR-28582,4 µM
same,MIC,B. cereus; B. cereus BAG1O-2 NR-28582,4 µM
same,MBC,B. cereus; B. cereus BAG1X1-1 NR-28575,4 µM
same,MIC,B. cereus; B. cereus BAG1X1-1 NR-28575,4 µM
same,MBC,B. cereus; B. cereus BAG1X2-1 NR-28578,4 µM
same,MIC,B. cereus; B. cereus BAG1X2-1 NR-28578,4 µM
same,MBC,B. cereus; B. cereus G9241 NR-9564,4 µM
same,MIC,B. cereus; B. cereus G9241 NR-9564,4 µM
same,MBC,B. cereus; B. cereus VD014 NR-22141,4 µM
same,MIC,B. cereus; B. cereus VD014 NR-22141,4 µM
same,MBC,B. cereus; B. cereus VD115 NR-22148,4 µM
same,MIC,B. cereus; B. cereus VD115 NR-22148,4 µM
same,MBC,B. cereus; B. cereus VD148 NR-22150,4 µM
same,MIC,B. cereus; B. cereus VD148 NR-22150,4 µM
same,MBC,B. cereus; [16],4 µM
same,MIC,B. cereus; [16],4 µM
same,MIC,Escherichia coli O157:H7 [3]; [17],>64 µM
same,MIC,Escherichia coli O157:H7 [3]; [18],>64 µM
same,MIC,"Escherichia coli O157:H7 [3]; Escherichia coli, ATCC35150",> 128 µM
same,MIC,"Escherichia coli O157:H7 [3]; Escherichia coli, ATCC700728",> 128 µM
same,MIC,"MRSA USA300; 24 h, Media TSB + 4% HSA",> 64 µM
same,MIC,MRSA USA300; Media TSB,8 µM
same,MIC,Pseudomonas aeruginosa [4]; [19],>64 µM
same,MIC,Pseudomonas aeruginosa [4]; [20],> 128 µM
same,MBC,[5]; E. faecalis ERV103 HM-934,16 µM
same,MIC,[5]; E. faecalis ERV103 HM-934,8 µM
same,MBC,[5]; [21],16 µM
same,MIC,[5]; [21],8 µM
same,MBC,[5]; E. faecalis R712 HM-335,8 µM
same,MIC,[5]; E. faecalis R712 HM-335,4 µM
same,MBC,[5]; E. faecalis S613 HM-334,16 µM
same,MIC,[5]; E. faecalis S613 HM-334,8 µM
same,MBC,[5]; E. faecalis TX0104 HM-201,8 µM
same,MIC,[5]; E. faecalis TX0104 HM-201,8 µM
same,MIC,P. aeruginosa; ATCC9721,> 128 µM
same,MIC,P. aeruginosa; ATCC15442,> 128 µM
same,MIC,Acinetobacter baumannii [6]; ATCC13345,> 128 µM
same,MIC,Acinetobacter baumannii [6]; ATCC17786,> 128 µM
same,MIC,K. pneumoniae; K. pneumoniae NR-15417,>128 µM
same,MIC,K. pneumoniae; Klebsiella pneumoniae,> 128 µM
same,MIC,Acinetobacter baumannii [7]; [22],>64 µM
same,MIC,Acinetobacter baumannii [7]; [23],>64 µM
same,MIC,Acinetobacter baumannii [7]; [24],> 128 µM
same,MIC,Acinetobacter baumannii [7]; [25],> 128 µM
same,MIC,Escherichia coli O157:H7 [8]; [26],8 µM
same,MIC,Escherichia coli O157:H7 [8]; [27],>64 µM
same,MIC,"Escherichia coli O157:H7 [8]; Escherichia coli, ATCC35150",> 256 µM
same,MIC,"Escherichia coli O157:H7 [8]; Escherichia coli, ATCC700728",> 128 µM
same,MBC,[9]; E. faecium E417 HM-965,> 64 µM
same,MIC,[9]; E. faecium E417 HM-965,4 µM
same,MBC,[9]; E. faecium E1071 NR-28978,> 64 µM
same,MIC,[9]; E. faecium E1071 NR-28978,8 µM
same,MBC,[9]; [28],> 64 µM
same,MIC,[9]; [28],8 µM
same,MBC,[9]; [29],64 µM
same,MIC,[9]; [29],8 µM
same,MBC,[9]; [30],> 64 µM
same,MIC,[9]; [30],4 µM
same,MIC,Escherichia coli Δ acrAB; E.coli 1411,> 64 µM
same,MIC,Escherichia coli Δ acrAB; [31],> 64 µM
same,MIC,Salmonella Typhimurium [10]; [32],>64 µM
same,MIC,Salmonella Typhimurium [10]; [13],> 128 µM
O=C(O)[C@H](Cc1ccccc1)N1C(=O)/C(=C/c2cccc(-c3ccccc3)c2)SC1=S [Rh 5],MIC,Klebsiella pneumoniae; [11],>64 µM
same,MIC,"Klebsiella pneumoniae; Klebsiella pneumoniae, BAA2146",> 128 µM
same,MIC,Salmonella Typhimurium [1]; [12],>128 µM
same,MIC,Salmonella Typhimurium [1]; [13],> 128 µM
same,MIC,Pseudomonas aeruginosa [2]; [14],>64 µM
same,MIC,Pseudomonas aeruginosa [2]; [15],> 128 µM
same,MIC50,Bacillus Strains,4 µM
same,MIC90,Bacillus Strains,8 µM
same,MBC,B. cereus; B. cereus BAG1O-2 NR-28582,4 µM
same,MIC,B. cereus; B. cereus BAG1O-2 NR-28582,4 µM
same,MBC,B. cereus; B. cereus BAG1X1-1 NR-28575,4 µM
same,MIC,B. cereus; B. cereus BAG1X1-1 NR-28575,4 µM
same,MBC,B. cereus; B. cereus BAG1X2-1 NR-28578,4 µM
same,MIC,B. cereus; B. cereus BAG1X2-1 NR-28578,4 µM
same,MBC,B. cereus; B. cereus G9241 NR-9564,8 µM
same,MIC,B. cereus; B. cereus G9241 NR-9564,8 µM
same,MBC,B. cereus; B. cereus VD014 NR-22141,8 µM
same,MIC,B. cereus; B. cereus VD014 NR-22141,4 µM
same,MBC,B. cereus; B. cereus VD115 NR-22148,4 µM
same,MIC,B. cereus; B. cereus VD115 NR-22148,4 µM
same,MBC,B. cereus; B. cereus VD148 NR-22150,4 µM
same,MIC,B. cereus; B. cereus VD148 NR-22150,4 µM
same,MBC,B. cereus; [16],4 µM
same,MIC,B. cereus; [16],4 µM
same,MIC,Escherichia coli O157:H7 [3]; [17],>64 µM
same,MIC,Escherichia coli O157:H7 [3]; [18],>64 µM
same,MIC,"Escherichia coli O157:H7 [3]; Escherichia coli, ATCC35150",> 128 µM
same,MIC,"Escherichia coli O157:H7 [3]; Escherichia coli, ATCC700728",> 128 µM
same,MIC,"MRSA USA300; 24 h, Media TSB + 4% HSA",> 64 µM
same,MIC,MRSA USA300; Media TSB,16 µM
same,MIC,Pseudomonas aeruginosa [4]; [19],>64 µM
same,MIC,Pseudomonas aeruginosa [4]; [20],> 128 µM
same,MBC,[5]; E. faecalis ERV103 HM-934,16 µM
same,MIC,[5]; E. faecalis ERV103 HM-934,16 µM
same,MBC,[5]; [21],16 µM
same,MIC,[5]; [21],16 µM
same,MBC,[5]; E. faecalis R712 HM-335,16 µM
same,MIC,[5]; E. faecalis R712 HM-335,8 µM
same,MBC,[5]; E. faecalis S613 HM-334,16 µM
same,MIC,[5]; E. faecalis S613 HM-334,16 µM
same,MBC,[5]; E. faecalis TX0104 HM-201,16 µM
same,MIC,[5]; E. faecalis TX0104 HM-201,16 µM
same,MIC,P. aeruginosa; ATCC9721,> 128 µM
same,MIC,P. aeruginosa; ATCC15442,> 128 µM
same,MIC,Acinetobacter baumannii [6]; ATCC13345,> 128 µM
same,MIC,Acinetobacter baumannii [6]; ATCC17786,> 128 µM
same,MIC,K. pneumoniae; K. pneumoniae NR-15417,>128 µM
same,MIC,K. pneumoniae; Klebsiella pneumoniae,> 128 µM
same,MIC,Acinetobacter baumannii [7]; [22],>64 µM
same,MIC,Acinetobacter baumannii [7]; [23],>64 µM
same,MIC,Acinetobacter baumannii [7]; [24],> 128 µM
same,MIC,Acinetobacter baumannii [7]; [25],> 128 µM
same,MIC,Escherichia coli O157:H7 [8]; [26],8 µM
same,MIC,Escherichia coli O157:H7 [8]; [27],>64 µM
same,MIC,"Escherichia coli O157:H7 [8]; Escherichia coli, ATCC35150",> 256 µM
same,MIC,"Escherichia coli O157:H7 [8]; Escherichia coli, ATCC700728",> 128 µM
same,MBC,[9]; E. faecium E417 HM-965,> 64 µM
same,MIC,[9]; E. faecium E417 HM-965,8 µM
same,MBC,[9]; E. faecium E1071 NR-28978,> 64 µM
same,MIC,[9]; E. faecium E1071 NR-28978,16 µM
same,MBC,[9]; [28],64 µM
same,MIC,[9]; [28],16 µM
same,MBC,[9]; [29],> 64 µM
same,MIC,[9]; [29],16 µM
same,MBC,[9]; [30],64 µM
same,MIC,[9]; [30],8 µM
same,MIC,Escherichia coli Δ acrAB; E.coli 1411,> 64 µM
same,MIC,Escherichia coli Δ acrAB; [31],> 64 µM
same,MIC,Salmonella Typhimurium [10]; [32],>64 µM
same,MIC,Salmonella Typhimurium [10]; [13],> 128 µM
